Measurements taken from PubChem BioAssay (NCI).
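Here, GI50 denotes the concentration required for 50% inhibition of growth. TGI denotes the concentration required for complete inhibition of growth.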

Assays:
Assay in all cases: DTP human tumour cell line panel, 384-well format
A498 renal = system: A498 renal
A549 NSCLC = system: A549 NSCLC
ACHN renal = system: ACHN renal
BT-549 breast = system: BT-549 breast
CAKI-1 renal = system: CAKI-1 renal
COLO 205 colon = system: COLO 205 colon
DU-145 prostate = system: DU-145 prostate
EKVX NSCLC = system: EKVX NSCLC
HCC-2998 colon = system: HCC-2998 colon
HCT-116 colon = system: HCT-116 colon
HCT-15 colon = system: HCT-15 colon
HL-60(TB) leukemia = system: HL-60(TB) leukemia
HOP-62 NSCLC = system: HOP-62 NSCLC
HOP-92 NSCLC = system: HOP-92 NSCLC
HS 578T breast = system: HS 578T breast
HT29 colon = system: HT29 colon
IGROV1 ovarian = system: IGROV1 ovarian
KM12 colon = system: KM12 colon
LOX IMVI melanoma = system: LOX IMVI melanoma
M14 melanoma = system: M14 melanoma
MALME-3M melanoma = system: MALME-3M melanoma
MCF7 breast = system: MCF7 breast
MDA-MB-231 breast = system: MDA-MB-231 breast
MDA-MB-435 melanoma = system: MDA-MB-435 melanoma
MDA-MB-468 breast = system: MDA-MB-468 breast
MOLT-4 leukemia = system: MOLT-4 leukemia
NCI-H226 lung = system: NCI-H226 lung
NCI-H23 lung = system: NCI-H23 lung
NCI-H322M lung = system: NCI-H322M lung
NCI-H460 NSCLC = system: NCI-H460 NSCLC
NCI-H522 lung = system: NCI-H522 lung
NCI/ADR-RES ovarian = system: NCI/ADR-RES ovarian
OVCAR-3 ovarian = system: OVCAR-3 ovarian
OVCAR-4 ovarian = system: OVCAR-4 ovarian
OVCAR-5 ovarian = system: OVCAR-5 ovarian
OVCAR-8 ovarian = system: OVCAR-8 ovarian
PC-3 prostate = system: PC-3 prostate
RPMI-8226 leukemia = system: RPMI-8226 leukemia
RXF 393 renal = system: RXF 393 renal
SF-268 CNS = system: SF-268 CNS
SF-295 CNS = system: SF-295 CNS
SF-539 CNS = system: SF-539 CNS
SK-MEL-28 melanoma = system: SK-MEL-28 melanoma
SK-MEL-5 melanoma = system: SK-MEL-5 melanoma
SK-OV-3 ovarian = system: SK-OV-3 ovarian
SN12C renal = system: SN12C renal
SNB-19 CNS = system: SNB-19 CNS
SNB-75 CNS = system: SNB-75 CNS
SR leukemia = system: SR leukemia
T-47D breast = system: T-47D breast
TK-10 renal = system: TK-10 renal
U251 glioblastoma = system: U251 glioblastoma
UACC-257 melanoma = system: UACC-257 melanoma
UACC-62 melanoma = system: UACC-62 melanoma

CCc1c[nH]c2ncnc(N3CC[C@@](N)(CNC(=O)c4ccc(F)cc4F)C3)c12
GI50 (A498 renal): 2.72 µM
TGI (A498 renal): 19.3 µM
GI50 (A549 NSCLC): 20.8 µM
TGI (A549 NSCLC): 50.7 µM
GI50 (ACHN renal): 15.5 µM
TGI (ACHN renal): 50 µM
GI50 (BT-549 breast): 10.9 µM
TGI (BT-549 breast): 24.9 µM
GI50 (CAKI-1 renal): 16.5 µM
TGI (CAKI-1 renal): > 100 µM
GI50 (COLO 205 colon): 15.8 µM
TGI (COLO 205 colon): 41.5 µM
GI50 (DU-145 prostate): 23.2 µM
TGI (DU-145 prostate): 94.1 µM
GI50 (EKVX NSCLC): 28.6 µM
TGI (EKVX NSCLC): > 100 µM
GI50 (HCC-2998 colon): 18.8 µM
TGI (HCC-2998 colon): > 100 µM
GI50 (HCT-116 colon): 20.5 µM
TGI (HCT-116 colon): > 100 µM
GI50 (HCT-15 colon): 32 µM
TGI (HCT-15 colon): > 100 µM
GI50 (HL-60(TB) leukemia): 15.7 µM
TGI (HL-60(TB) leukemia): 29.4 µM
GI50 (HOP-62 NSCLC): 20 µM
TGI (HOP-62 NSCLC): 93 µM
GI50 (HOP-92 NSCLC): 28.6 µM
TGI (HOP-92 NSCLC): > 100 µM
GI50 (HS 578T breast): 14.9 µM
TGI (HS 578T breast): 33.7 µM
GI50 (HT29 colon): 29.1 µM
TGI (HT29 colon): > 100 µM
GI50 (IGROV1 ovarian): 6.09 µM
TGI (IGROV1 ovarian): 32.4 µM
GI50 (KM12 colon): 4.05 µM
TGI (KM12 colon): > 100 µM
GI50 (LOX IMVI melanoma): 18.9 µM
TGI (LOX IMVI melanoma): 47.3 µM
GI50 (M14 melanoma): 28.4 µM
TGI (M14 melanoma): > 100 µM
GI50 (MALME-3M melanoma): 14.2 µM
TGI (MALME-3M melanoma): 37.5 µM
GI50 (MCF7 breast): 12.7 µM
TGI (MCF7 breast): > 100 µM
GI50 (MDA-MB-231 breast): 35.6 µM
TGI (MDA-MB-231 breast): > 100 µM
GI50 (MDA-MB-435 melanoma): 31.4 µM
TGI (MDA-MB-435 melanoma): > 100 µM
GI50 (MDA-MB-468 breast): 13.9 µM
TGI (MDA-MB-468 breast): 55.5 µM
GI50 (MOLT-4 leukemia): 5.23 µM
TGI (MOLT-4 leukemia): 20.3 µM
GI50 (NCI-H226 lung): 20.2 µM
TGI (NCI-H226 lung): > 100 µM
GI50 (NCI-H23 lung): 14.5 µM
TGI (NCI-H23 lung): 39.9 µM
GI50 (NCI-H322M lung): 22 µM
TGI (NCI-H322M lung): 79.4 µM
GI50 (NCI-H460 NSCLC): 11.3 µM
TGI (NCI-H460 NSCLC): > 100 µM
GI50 (NCI-H522 lung): 16.8 µM
TGI (NCI-H522 lung): 47.4 µM
GI50 (NCI/ADR-RES ovarian): 89 µM
TGI (NCI/ADR-RES ovarian): > 100 µM
GI50 (OVCAR-3 ovarian): 33.8 µM
TGI (OVCAR-3 ovarian): > 100 µM
GI50 (OVCAR-4 ovarian): > 100 µM
TGI (OVCAR-4 ovarian): > 100 µM
GI50 (OVCAR-5 ovarian): 17.1 µM
TGI (OVCAR-5 ovarian): 76 µM
GI50 (OVCAR-8 ovarian): 41.3 µM
TGI (OVCAR-8 ovarian): > 100 µM
GI50 (PC-3 prostate): 22.1 µM
TGI (PC-3 prostate): > 100 µM
GI50 (RPMI-8226 leukemia): 14.2 µM
TGI (RPMI-8226 leukemia): 54.7 µM
GI50 (RXF 393 renal): 27.8 µM
TGI (RXF 393 renal): > 100 µM
GI50 (SF-268 CNS): 48.3 µM
TGI (SF-268 CNS): > 100 µM
GI50 (SF-295 CNS): 29.1 µM
TGI (SF-295 CNS): > 100 µM
GI50 (SF-539 CNS): 11.9 µM
TGI (SF-539 CNS): > 100 µM
GI50 (SK-MEL-28 melanoma): 25.5 µM
TGI (SK-MEL-28 melanoma): > 100 µM
GI50 (SK-MEL-5 melanoma): 11 µM
TGI (SK-MEL-5 melanoma): 28.4 µM
GI50 (SK-OV-3 ovarian): 13.6 µM
TGI (SK-OV-3 ovarian): > 100 µM
GI50 (SN12C renal): 23.3 µM
TGI (SN12C renal): 88.5 µM
GI50 (SNB-19 CNS): 61.9 µM
TGI (SNB-19 CNS): > 100 µM
GI50 (SNB-75 CNS): 31.3 µM
TGI (SNB-75 CNS): > 100 µM
TGI (SR leukemia): 0.816 µM
GI50 (T-47D breast): 35.3 µM
TGI (T-47D breast): > 100 µM
GI50 (TK-10 renal): 13.5 µM
TGI (TK-10 renal): 42.8 µM
GI50 (U251 glioblastoma): 37.4 µM
TGI (U251 glioblastoma): > 100 µM
GI50 (UACC-257 melanoma): 16.5 µM
TGI (UACC-257 melanoma): 37 µM
GI50 (UACC-62 melanoma): 18.9 µM
TGI (UACC-62 melanoma): 59.2 µM
